We go through 40 molecules from patent publication US20240299385A1 (ReWind Therapeutics NV, priority 2021, published 2024).

As usually defined, the pIC50 is the IC50 on a negative log10 scale, so that one unit is a factor of ten.

pIC50: −log10 of the molar value.

The experiment deals with T1, human GPR17 receptor (Homo sapiens, UniProt Q13304).
T1 construct: host or cells: HEK-293
T1 sequence (Q13304 whole entry): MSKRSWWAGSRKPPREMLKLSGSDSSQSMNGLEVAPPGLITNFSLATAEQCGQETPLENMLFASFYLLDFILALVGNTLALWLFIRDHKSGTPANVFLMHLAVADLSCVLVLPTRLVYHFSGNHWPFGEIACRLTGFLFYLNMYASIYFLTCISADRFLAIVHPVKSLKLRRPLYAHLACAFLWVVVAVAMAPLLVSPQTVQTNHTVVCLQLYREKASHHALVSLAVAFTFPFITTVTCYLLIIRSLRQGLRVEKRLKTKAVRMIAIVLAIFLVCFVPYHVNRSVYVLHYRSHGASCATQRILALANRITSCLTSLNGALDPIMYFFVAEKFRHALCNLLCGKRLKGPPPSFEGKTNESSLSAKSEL
The experiment can be described thus: Calcium mobilization functional assay (Fluo-8, FLIPR TETRA) in HEK-293 hGPR17 (Gα-q assay). Format: cell-based. The settings on record: antagonism of MDL29,951 (~EC80) induced Ca2+ signal; cell line (HEK-293 hGPR17 or HEK-293 Suchi5 hGPR17) not given. Put shortly: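 Fluo-8-loaded HEK-293 hGPR17 cells (60 min dye loading, room temperature) were preincubated with compound for twenty minutes, then challenged with agonist MDL29,951 at ~EC80, 500 nM. Intracellular calcium release via Gα-q was recorded as FLIPR fluorescence for a further 2 minutes; compounds tested in duplicate.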
`O=S(=O)(Nc1cc(C(F)(F)F)ncc1F)c1c[nH]c(-c2ccccc2)c1` [Cpd 199, N-[5-fluoro-2-(trifluoromethyl)-4-pyridyl]-5-phenyl-1H-pyrrole-3-sulfonamide]: the pIC50 is 4.30 to 5.30. In the case of `CC(=O)c1ccc(NS(=O)(=O)c2c[nH]c(-c3ccccn3)c2)c(F)c1` [Cpd 200, N-(4-acetyl-2-fluoro-phenyl)-5-(2-pyridyl)-1H-pyrrole-3-sulfonamide], the pIC50 was 4.30 to 5.30. For `N#CCc1cnc(NS(=O)(=O)c2c[nH]c(-c3ccccn3)c2)c(F)c1` [Cpd 201, N-[5-(cyanomethyl)-3-fluoro-2-pyridyl]-5-(2-pyridyl)-1H-pyrrole-3-sulfonamide] the value was 4.30 to 5.30; for `O=S(=O)(Nc1cc(F)c(Cl)cc1F)c1c[nH]c(-c2ccccn2)c1` [Cpd 202, N-(4-chloro-2,5-difluoro-phenyl)-5-(2-pyridyl)-1H-pyrrole-3-sulfonamide], more than 6.30; for `CCOC(=O)c1ccc(NS(=O)(=O)c2c[nH]c(-c3ccccn3)c2)c(F)c1` [Cpd 203], 5.30 to 6.30. Turning to `O=S(=O)(Nc1cc(F)c(C(F)(F)F)cc1F)c1c[nH]c(-c2ncccc2Cl)c1` [Cpd 204, 5-(3-chloro-2-pyridyl)-N-[2,5-difluoro-4-(trifluoromethyl)phenyl]-1H-pyrrole-3-sulfonamide], the pIC50 was more than 6.30. For `O=S(=O)(Nc1cc(F)c(OC(F)F)cc1F)c1c[nH]c(-c2ccccn2)c1` [Cpd 205, N-[4-(difluoromethoxy)-2,5-difluoro-phenyl]-5-(2-pyridyl)-1H-pyrrole-3-sulfonamide], the pIC50 is more than 6.30. On to `N#Cc1ccc(NS(=O)(=O)c2c[nH]cc2Cc2cccc(Cl)c2)c(F)c1` [Cpd 206, 4-[(3-chlorophenyl)methyl]-N-(4-cyano-2-fluoro-phenyl)-1H-pyrrole-3-sulfonamide], for which the pIC50 is more than 6.30. As for `N#Cc1ccc(NS(=O)(=O)c2c[nH]cc2C(O)c2ccccc2)c(F)c1` (stereo not shown) [Cpd 207, N-(4-cyano-2-fluoro-phenyl)-4-[hydroxy(phenyl)methyl]-1H-pyrrole-3-sulfonamide], the pIC50 was 4.30 to 5.30. For `N#Cc1ccc(NS(=O)(=O)c2c[nH]cc2Cc2ccc(Cl)cc2)c(F)c1` [Cpd 208, 4-[(4-chlorophenyl)methyl]-N-(4-cyano-2-fluoro-phenyl)-1H-pyrrole-3-sulfonamide] the value was 5.30 to 6.30; for `COc1ccc(Cc2c[nH]cc2S(=O)(=O)Nc2ccc(C#N)cc2F)cc1` [Cpd 209, N-(4-cyano-2-fluoro-phenyl)-4-[(4-methoxyphenyl)methyl]-1H-pyrrole-3-sulfonamide], 4.30 to 5.30; for `COc1cccc(Cc2c[nH]cc2S(=O)(=O)Nc2ccc(C#N)cc2F)c1` [Cpd 210, N-(4-cyano-2-fluoro-phenyl)-4-[(3-methoxyphenyl)methyl]-1H-pyrrole-3-sulfonamide], more than 6.30. Consider `COc1ccccc1Cc1c[nH]cc1S(=O)(=O)Nc1ccc(C#N)cc1F` [Cpd 211, N-(4-cyano-2-fluoro-phenyl)-4-[(2-methoxyphenyl)methyl]-1H-pyrrole-3-sulfonamide], for which the pIC50 was 5.30 to 6.30. Consider `O=S(=O)(Nc1cc(F)c(C(F)(F)F)cc1F)c1c[nH]c(-c2cc(Cl)ccn2)c1` [Cpd 214, 5-(4-chloro-2-pyridyl)-N-[2,5-difluoro-4-(trifluoromethyl)phenyl]-1H-pyrrole-3-sulfonamide], for which the pIC50 was 5.30 to 6.30. As for `O=S(=O)(Nc1cc(F)c(C(F)(F)F)cc1F)c1c[nH]c(-c2cccc(Cl)n2)c1` [Cpd 215, 5-(6-chloro-2-pyridyl)-N-[2,5-difluoro-4-(trifluoromethyl)phenyl]-1H-pyrrole-3-sulfonamide], the pIC50 was more than 6.30. As for `C#Cc1cnc(NS(=O)(=O)c2c[nH]c(-c3ccccc3)c2)c(F)c1` [Cpd 216, N-(5-ethynyl-3-fluoro-2-pyridyl)-5-phenyl-1H-pyrrole-3-sulfonamide], the negative-log IC50 (pIC50) is 5.30 to 6.30. For `N#Cc1ccc(NS(=O)(=O)c2c[nH]cc2-c2ccc(F)cc2)c(F)c1` [Cpd 217, N-(4-cyano-2-fluoro-phenyl)-4-(4-fluorophenyl)-1H-pyrrole-3-sulfonamide] the value was 4.30 to 5.30; for `N#Cc1ccc(NS(=O)(=O)c2c[nH]cc2-c2ccc(Cl)cc2)c(F)c1` [Cpd 218, 4-(4-chlorophenyl)-N-(4-cyano-2-fluoro-phenyl)-1H-pyrrole-3-sulfonamide], 5.30 to 6.30. `Cc1ccc(-c2c[nH]cc2S(=O)(=O)Nc2ccc(C#N)cc2F)cc1` [Cpd 219, N-(4-cyano-2-fluoro-phenyl)-4-(p-tolyl)-1H-pyrrole-3-sulfonamide]: the pIC50 was 5.30 to 6.30.

For the molecule `COc1cccc(-c2c[nH]cc2S(=O)(=O)Nc2ccc(C#N)cc2F)c1` [Cpd 220, N-(4-cyano-2-fluoro-phenyl)-4-(3-methoxyphenyl)-1H-pyrrole-3-sulfonamide], the pIC50 was 5.30 to 6.30. For `Cc1cccc(-c2c[nH]cc2S(=O)(=O)Nc2ccc(C#N)cc2F)c1` [Cpd 221, N-(4-cyano-2-fluoro-phenyl)-4-(m-tolyl)-1H-pyrrole-3-sulfonamide] the value was 5.30 to 6.30. Consider `N#Cc1ccc(NS(=O)(=O)c2c[nH]cc2-c2ccccc2Cl)c(F)c1` [Cpd 222, 4-(2-chlorophenyl)-N-(4-cyano-2-fluoro-phenyl)-1H-pyrrole-3-sulfonamide], for which the pIC50 is 4.30 to 5.30. Regarding `COc1ccccc1-c1c[nH]cc1S(=O)(=O)Nc1ccc(C#N)cc1F` [Cpd 223, N-(4-cyano-2-fluoro-phenyl)-4-(2-methoxyphenyl)-1H-pyrrole-3-sulfonamide], the pIC50 was 4.30 to 5.30. For `COc1nccc(F)c1-c1cc(S(=O)(=O)Nc2cc(F)c(C(F)(F)F)cc2F)c[nH]1` [Cpd 224, N-[2,5-difluoro-4-(trifluoromethyl)phenyl]-5-(4-fluoro-2-methoxy-3-pyridyl)-1H-pyrrole-3-sulfonamide] the value was more than 6.30; for `COc1nccc(F)c1-c1cc(S(=O)(=O)Nc2ccc(Cl)cc2F)c[nH]1` [Cpd 227, N-(4-chloro-2-fluoro-phenyl)-5-(4-fluoro-2-methoxy-3-pyridyl)-1H-pyrrole-3-sulfonamide], 5.30 to 6.30.

Consider `N#Cc1ccc(NS(=O)(=O)c2c[nH]cc2-c2cccc(Cl)c2)c(F)c1` [Cpd 228, 4-(3-chlorophenyl)-N-(4-cyano-2-fluoro-phenyl)-1H-pyrrole-3-sulfonamide], for which the pIC50 is more than 6.30. Take `N#Cc1ccc(NS(=O)(=O)c2c[nH]cc2-c2ccccn2)c(F)c1` [Cpd 229, N-(4-cyano-2-fluoro-phenyl)-4-(2-pyridyl)-1H-pyrrole-3-sulfonamide]: the pIC50 was 5.30 to 6.30. Regarding `N#Cc1ccc(NS(=O)(=O)c2c[nH]cc2-c2cccc(F)c2)c(F)c1` [Cpd 230, N-(4-cyano-2-fluoro-phenyl)-4-(3-fluorophenyl)-1H-pyrrole-3-sulfonamide], the pIC50 is more than 6.30.

Take `N#Cc1ccc(NS(=O)(=O)c2c[nH]cc2-c2ccccc2F)c(F)c1` [Cpd 231, N-(4-cyano-2-fluoro-phenyl)-4-(2-fluorophenyl)-1H-pyrrole-3-sulfonamide]: the pIC50 was 5.30 to 6.30. For `O=S(=O)(Nc1cc(F)c(OC(F)F)cc1F)c1c[nH]c(-c2ccccc2)c1` [Cpd 232, N-[4-(difluoromethoxy)-2,5-difluoro-phenyl]-5-phenyl-1H-pyrrole-3-sulfonamide] the value was more than 6.30; for `O=S(=O)(Nc1ccc(OC(F)F)nc1)c1c[nH]c(-c2ccccc2)c1` [Cpd 233, N-[6-(difluoromethoxy)-3-pyridyl]-5-phenyl-1H-pyrrole-3-sulfonamide], 5.30 to 6.30. As for `O=S(=O)(Nc1cc(F)c(C(F)(F)F)cc1F)c1c[nH]c(-c2cc(CO)ccc2F)c1` [Cpd 234, N-[2,5-difluoro-4-(trifluoromethyl)phenyl]-5-[2-fluoro-5-(hydroxymethyl)phenyl]-1H-pyrrole-3-sulfonamide], the pIC50 is more than 6.30.

As for `COCc1ccc(F)c(-c2cc(S(=O)(=O)Nc3cc(F)c(C(F)(F)F)cc3F)c[nH]2)c1` [Cpd 235, N-[2,5-difluoro-4-(trifluoromethyl)phenyl]-5-[2-fluoro-5-(methoxymethyl)phenyl]-1H-pyrrole-3-sulfonamide], the pIC50 was 5.30 to 6.30. For the molecule `N#Cc1ccc(NS(=O)(=O)c2c[nH]c(C3CC3)c2)c(F)c1` [Cpd 236, N-(4-cyano-2-fluoro-phenyl)-5-cyclopropyl-1H-pyrrole-3-sulfonamide], the negative logarithm of the IC50 (pIC50) is 4.30 to 5.30. For the molecule `CCOc1cc(F)c(NS(=O)(=O)c2c[nH]c(-c3ccccn3)c2)cc1F` [Cpd 237, N-(4-ethoxy-2,5-difluoro-phenyl)-5-(2-pyridyl)-1H-pyrrole-3-sulfonamide], the pIC50 is 5.30 to 6.30. Regarding `N#Cc1ccc(NS(=O)(=O)c2c[nH]cc2C2=CCCC2)c(F)c1` [Cpd 238, N-(4-cyano-2-fluorophenyl)-4-(cyclopent-1-en-1-yl)-1H-pyrrole-3-sulfonamide], the negative logarithm of the IC50 (pIC50) was more than 6.30. For the molecule `O=S(=O)(Nc1ccc(OC(F)F)cc1F)c1c[nH]c(-c2ccccn2)c1` [Cpd 239, N-[4-(difluoromethoxy)-2-fluoro-phenyl]-5-(2-pyridyl)-1H-pyrrole-3-sulfonamide], the pIC50 is 5.30 to 6.30. In the case of `CCOc1ccccc1-c1cc(S(=O)(=O)Nc2ccc(C#N)cc2F)c[nH]1` [Cpd 240, N-(4-cyano-2-fluoro-phenyl)-5-(2-ethoxyphenyl)-1H-pyrrole-3-sulfonamide], the pIC50 is 5.30 to 6.30.

Take `CC(C)Oc1cc(F)c(NS(=O)(=O)c2c[nH]c(-c3ccccn3)c2)cc1F` [Cpd 241, N-(2,5-difluoro-4-isopropoxy-phenyl)-5-(2-pyridyl)-1H-pyrrole-3-sulfonamide]: the pIC50 was 4.30 to 5.30. As to `N#Cc1ccc(NS(=O)(=O)c2c[nH]cc2C2CCCC2)c(F)c1` [Cpd 242, N-(4-cyano-2-fluoro-phenyl)-4-cyclopentyl-1H-pyrrole-3-sulfonamide], the pIC50 was 4.30 to 5.30.
